In patent publication US11860174B2, “Anti-cannabidiol antibody and uses thereof” (BOMI, LLC, priority 2017, dated 2024):

Molecular target: T1, human CB2 receptors (Homo sapiens, UniProt P34972)
T1 construct: expressed in transfected cells; host or cells: CHO cells (membrane fraction)
Experiment: CHO-CB2 radioligand displacement binding (filtration)
Conditions: membranes of CB2 cells, Cheng & Prusoff, n = 3 or 4
Experimental: CHO cells and membrane preparation. These were stably transfected with cDNA encoding human CB2 receptors. […] Cells were maintained at 37° C. and 5% CO2 in DMEM (f-12 HAM) with 2 mm Glutamine, Geneticin (600 μg ml−1) and Hygromycin (300 μg ml−1). […] CHO cells were suspended in 50 mm Tris buffer (pH 7.4) and 0.32 m sucrose and homogenized with an Ultra-Turrex homogenizer. The homogenate was diluted with 50 mm Tris buffer (pH 7.4) and centrifuged at 50,000×g for 1 hour to isolate the membranes.
CHO—CB2 binding. […] Binding was initiated by the addition of cell membranes (20-30 μg protein). Assays were carried out at 30° C. for 90 minutes before termination by addition of ice-cold wash buffer (50 mm Tris buffer, 1 mg ml−1 BSA) and vacuum filtration using a 12-well sampling manifold (Brandel Cell Harvester) and Whatman GF/B glass-fibre filters that had been soaked in wash buffer at 4° C. for 24 hours. Each reaction tube was washed three times with a 4 ml aliquot of buffer. The filters were oven-dried for 60 minutes and then placed in 5 ml of scintillation fluid (Ultima Gold XR, Packard). Radioactivity was quantified by liquid scintillation spectrometry. Specific binding was defined as the difference between the binding that occurred in the presence and absence of 1 μm reference cannabidiol. Protein assays were performed using a Bio-Rad Dc kit. […] […] Competitive binding curves were fitted with minimum values for displacement of radio ligand from specific binding sites constrained to zero.
Additionally, binding of an MCA, described herein, was tested for this reference sample. The resulting displacement and binding values were used as a reference standard against which 26 CBD samples (acquired from Natural Hemp Solutions, Atlanta Ga.) were compared.

[1] = labelled cannabinoid [3H]-CP55940

T1 sequence (P34972 whole entry): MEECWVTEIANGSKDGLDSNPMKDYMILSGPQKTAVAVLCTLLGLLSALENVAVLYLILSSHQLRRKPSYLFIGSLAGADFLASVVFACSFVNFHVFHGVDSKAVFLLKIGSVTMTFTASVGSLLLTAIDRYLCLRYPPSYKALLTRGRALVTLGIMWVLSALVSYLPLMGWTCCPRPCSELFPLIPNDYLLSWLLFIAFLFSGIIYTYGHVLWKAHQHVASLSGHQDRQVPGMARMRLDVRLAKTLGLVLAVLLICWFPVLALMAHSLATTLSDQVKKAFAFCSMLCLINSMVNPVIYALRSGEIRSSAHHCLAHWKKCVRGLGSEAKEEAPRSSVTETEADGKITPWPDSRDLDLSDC

Question: What does the source list for `COc1ccc(C(=O)c2c(C)n(CCN3CCOCC3)c3cc(I)ccc23)cc1` [AM630]?
Answer: Ki [1]: 31.2 ± 12.4 nM; Ki (labelled cannabinoid [3H]-W1N55212-2): 37.5 ± 15.4 nM

Question: How did the Ki [1] turn out when `CCCCCCC(C)(C)c1cc(OC)c2c(c1)OC(C)(C)[C@@H]1CC=C(C)C[C@@H]21` [Sample L759633] was run?
Answer: The Ki was 6.4 ± 2.2 nM.

Question: Which Ki [1] does the source give for `C=C1CC[C@@H]2[C@@H](C1)c1c(OC)cc(C(C)(C)CCCCCC)cc1OC2(C)C` [Sample L759656] here?
Answer: The Ki was 11.8 ± 2.5 nM.
